Results as given in patent publication US8450456B2, “Activating peptide of the synthesis of aquaporins and cosmetic and/or pharmaceutical composition containing it” (ISP Investments Inc., priority 2007, dated 2013).
Ends that are not written are not given here.

Tests used:
[1] = system: Biopsies of human skin relieved of their stratum corneum; assay: Protective effect against induced cutaneous dehydration (tape stripping), ex vivo skin biopsies, H&E histology; format: cell-based; conditions: 1% solution of a mother solution at 50 ppm, 24 hours, stripped ex vivo human skin
Experimental: The aim of this study is to determine the protective effect of the peptide SEQ ID no5 with respect to ex vivo epidermis cultures subjected to a stress by an induced cutaneous dehydration.
Biopsies of human skin are relieved of their stratum corneum by stripping by means of an adhesive tape (tape stripping) then held in culture ex vivo, treated with a 1% solution of a mother solution at 50 ppm of peptide SEQ ID no5 for 24 hours. The absence of the stratum corneum induces a high dehydration. Hematoxylin-eosin (H&E) histological sections and stains allow the quality of the cutaneous structures to be evaluated.

claudin-1 = assay: Expression of claudin-1 by immunofluorescence on sections of human skin; format: cell-based; conditions: 1% solution of a mother solution at 50 ppm applied topically, 24 hours (0.05 ppm); in particular the upper layers of the epidermis
Description: (§1) The aim of this study is to determine the influence of the peptide SEQ ID no 5 on the expression of claudins and of keratin K10. Claudins are the principal transmembrane proteins of the intercellular adhesion structures known as tight-junction, which play a part in the cellular communication and in epidermal cohesion. Keratin K10 is a specific keratin of the differentiated epidermal layers (stratum granulosum) and is involved in the barrier function of the skin. The quantity of protein was evaluated by immunofluorescence on sections of human skin.
(§2) Protocol: Samples of human skin are cultured at the air/liquid interface. A 1% solution of a mother solution at 50 ppm of peptide SEQ ID no5 is applied topically, then the samples are incubated for 24 hours.
(§3) These skin samples are then fixed with formaldehyde, then enclosed in paraffin. Sections of 2 to 3 μm are then realized. The immunolabeling is carried out after different stages of washing and of incubation of these sections.
The immunolabeling of claudin-1 is carried out by means of a specific antibody of claudin-1 (claudin-1 antibody: rabbit polyclonal, ref: Ab15098, Abcam, dilution 1/200th), then a secondary antibody, coupled with a fluorescent marker (alexa Fluor 488 donkey anti-rabbit IgG, A21206, Molecular Probes, 1/1000th).
(§4) The skin sections are then examined by epifluorescence microscope (Nikon Eclipse E600 microscope).

keratin K10 = assay: Expression of keratin K10 by immunofluorescence on sections of human skin; format: cell-based; conditions: 1% solution of a mother solution at 50 ppm applied topically, 24 hours (0.05 ppm); in particular the upper layers of the epidermis
Description: as §1, §2, §3
The immunolabeling of keratin 10 is carried out by means of a specific antibody of keratin 10 (antibody K10: mouse monoclonal, ref: LHP1, Novocastra, dilution 1/50th), then a secondary antibody, coupled to a fluorescent marker (alexa Fluor 488 donkey anti-mouse IgG, A21202, Molecular Probes, 1/1000th).
as §4

[2] = system: normal human keratinocytes; assay: Protective effect against osmotic shock caused by sorbitol, viability test by MTT; format: cell-based; conditions: sorbitol 250 mM 24 hours, vs non-treated cells
Experimental: The aim of this study is to determine the protective effect of the peptide SEQ ID no4 with respect to normal human keratinocytes subjected to an osmotic shock caused by sorbitol. The evaluation of the cellular state is then carried out by a viability test by MTT.
Normal human keratinocytes in culture were placed in the presence of the peptide SEQ ID no4 at 0.5%, 1% and 3% from a mother solution at 50 ppm, 24 hours before and during the osmotic shock. The hypertonic culture conditions were realized by adding sorbitol at 250 mM to the culture medium for 24 hours. Non-treated controls are carried out.
Cellular viability tests were then carried out by the MTT technique. The MTT agent (3-[4,5-dimethylthiazol-2-yl]-2,5-diphenyltetrazolium bromide) is used to evaluate the cellular viability. The keratinocytes are incubated in a solution containing 0.1 mg/ml MTT (3-[4,5-dimethylthiazol-2-yl]-2,5-diphenyltetrazolium bromide). This compound is absorbed by the living cells, then metabolized by the mitochondrial enzymes (succinate dehydrogenase) in a blue-violet compound, formazan, which is present in the form of insoluble violet crystals in aqueous medium.
The formazan crystals are solubilized in DMSO. They produce an absorbance (O.D.) proportional to the number of living cells present in the sample. Measurements of absorbance at 540 nm are then carried out. […]

aquaporin 3 = assay: Expression of aquaporin 3 by immunofluorescence in samples of skin ex vivo; format: cell-based, human; conditions: 1% solution of a mother solution at 50 ppm applied topically, 24 hours or 48 hours (0.05 ppm); upper layers of the epidermis; vs non-treated control
Experimental: The aim of this study is to determine the influence of the peptide SEQ ID no5 on the expression of aquaporin 3 in samples of skin ex vivo.
Protocol: Samples of human skin are cultured at the air/liquid interface. A 1% solution of a mother solution at 50 ppm of peptide SEQ ID no4 is applied topically, then the samples are incubated for 24 hours or 48 hours.
These skin samples are then fixed with formaldehyde then enclosed in paraffin. Sections of 2 to 3 μm are then realized. The immunolabeling is carried out after different stages of washing and incubation of these sections. The immunolabeling is carried out by means of a specific polyclonal antibody of aquaporin 3 (anti-aquaporin 3 (C-18): goat polyclonal, sc-9885, Santa Cruz, dilution 1/100th), then a secondary antibody, coupled to a fluorescent marker (alexa-fluor 488 donkey anti-goat Ig G, Molecular Probes, dilution 1/1000th). The skin sections are then examined by epifluorescence microscope (Nikon Eclipse E600 microscope).

| Substance | appearance of the keratinocytes of the basal layer (regeneration) [1] | signs of cellular stress and preservation of cutaneous structures (H&E sections) ([1]; vs non-treated biopsies) | claudin-1 immunofluorescence (claudin-1) | keratin K10 immunofluorescence (keratin K10) | viability of cells subjected to the osmotic shock (dose dependence) ([2]; peptide at 0.5%, 1% and 3% of a mother solution at 50 ppm) | increase of viability of cells subjected to the osmotic shock ([2]; peptide at 3% of a mother solution at 50 ppm, 24 hours before and during shock) [%] | aquaporin 3 immunofluorescence (aquaporin 3) |
| --- | --- | --- | --- | --- | --- | --- | --- |
| Asn-Pro-Ala-Arg-NH2 (NPAR-NH2) [SEQ ID no5] | regenerating effect | distinct reduction to the signs of cellular stress and a better preservation of the cutaneous structures | stronger fluorescence | stronger fluorescence |  |  |  |
| Asn-Pro-Ala-Arg (NPAR) [SEQ ID no4] |  |  |  |  | increase in the viability, dependent on dose | 12 | stronger fluorescence |
